Assays:
[1] = Particle size distribution (Malvern mastersizer); assay type: physicochemical; conditions: after jet mill micronization, Example 4
Excerpt: The particle size of the darunavir ethanolate obtained by the process of present invention can be determined by any method known in the art such as laser diffraction, sieve analysis, microscope observation, sedimentation etc. Malvern mastersizer is an instrument employed for particle size determination in the present invention.

Bulk and tapped density = assay type: physicochemical; conditions: after jet mill micronization, Example 4

## CC(C)CN(C[C@@H](O)[C@H](Cc1ccccc1)NC(=O)O[C@H]1CO[C@H]2OCC[C@H]21)S(=O)(=O)c1ccc(N)cc1 [darunavir ethanolate, Darunavir ethanolate]
[1]
  Particle size distribution d0.1: 2 μm
  Particle size distribution d0.5: 18 μm
  Particle size distribution d0.9: 97 μm
Bulk and tapped density
  Bulk density: 0.42 g/mL
  Tapped density: 0.72 g/mL

Reference: patent US9062067B2, “Process for preparation of darunavir and darunavir ethanolate of fine particle size” (Lupin Limited, priority 2009, dated 2015)
